Counter-ions that a name gives are not always drawn. A value given as a limit tells only on which side of the number the result lay.

XIAP-BIR3, sequence (P98170 241-356 limits assumed): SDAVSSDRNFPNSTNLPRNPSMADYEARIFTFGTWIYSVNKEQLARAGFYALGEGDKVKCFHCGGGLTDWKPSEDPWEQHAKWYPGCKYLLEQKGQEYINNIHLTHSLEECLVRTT

The target in this test is XIAP-BIR3 (Homo sapiens, UniProt P98170). Description: XIAP BIR3 fluorescence polarization binding assay (competition with AbuRPF-K(5-Fam)-NH2). The settings on record: 5 nM AbuRPF-K(5-Fam)-NH2, 40 nM XIAP-BIR3, pH 7.5; Kd calculated from measured IC50; read-out: KD Range. The method, then:
Binding constants (Kd) were measured using fluorescence polarization as described by Zaneta Nikolovska-Coleska, Renxiao Wang, Xueliang Fang, Hongguang Pan, York Tomita, Peng Li, Peter P. Roller, Krzysztof Krajewski, Naoyuki Saito, Jeanne Stuckey and Shaomeng Wang, in “Development and Optimization of a Binding Assay for the XIAP BIR3 Domain Using Fluorescence Polarization”, Analytical Biochemistry 2004, 332, 261-273). Briefly, test IAP binding compounds at various concentrations for binding measurements were mixed with 5 nM fluorescently labeled peptide (AbuRPF-K(5-Fam)-NH2) and 40 nM of XIAP-BIR3 for 15 minutes at room temperature in 100 μL of 0.1M Potassium Phosphate buffer, pH 7.5 containing 100 μg/ml bovine γ-globulin. Following incubation, the polarization values (mP) were measured on a Victor^2V using a 485 nm excitation filter and a 520 nm emission filter. IC50 values were determined from the plot using nonlinear least-squares analysis using GraphPad Prism. The Kd values of competitive inhibitors were calculated using the equation described by Zaneta Nikolovska-Coleska et al. based upon the measured IC50 values, the Kd value of the probe and XIAP BIR3 complex, and the concentrations of the protein and probe in the competition assay. In various examples of IAP binding or IAP binding cargo molecules ranges for Kd values: Group A: Kd<0.1 μM; Group B: Kd=0.1-1 μM; Group C: Kd=1-10 μM; Group D: Kd>10 μM.
On to `CN[C@@H](C)C(=O)N[C@H](C(=O)N1C[C@@H](Oc2ccccc2)C[C@H]1Cc1coc2ccccc12)C(C)C` [Entry 5-45], for which the Kd is under 100 nM.

On to `CNC(C)C(=O)NC(C(=O)N1CCCC1Cc1c(-c2cccs2)n(CCOCCOCCOC)c2cc(F)ccc12)C(C)(C)C` (centres unmarked) [Entry 16-114], for which the Kd was under 100 nM.

As to `CCc1ccccc1OC/C=C/[C@@H]1C[C@H](Oc2ccccc2)CN1C(=O)[C@@H](NC(=O)[C@H](C)N)C(C)C` [Entry 3-12, trans-2S-Amino-N-(1S-{2S-[3-(2-ethyl-phenoxy)-propenyl]-4S-phenoxy-pyrrolidine-1-carbonyl}-2-methyl-propyl)-propionamide], the equilibrium dissociation constant (Kd) was 100 to 1000 nM.

As to `CCc1ccccc1OCCCC1CC(Oc2ccccc2)CN1C(=O)C(NC(=O)CN)C(C)C` (centres unmarked) [Entry 4-27], the Kd is over 10000 nM.

On to `CC(NCC1CC1)C(=O)NC(C(=O)N1CCCC1Cc1coc2ccccc12)C(C)C` (centres unmarked) [Entry 5-70], for which the Kd is 1000 to 10000 nM.

For `CC(=O)n1cc(C[C@@H]2CCCN2C(=O)[C@@H](NC(=O)[C@H](C)N)C(C)C)c2ccccc21` [Entry 14-94, N-{1S-[2S-(1-Acetyl-1H-indol-3-ylmethyl)-pyrrolidine-1-carbonyl]-2-methyl-propyl}-2S-amino-propionamide], the dissociation constant Kd was under 100 nM.

As for `CC(C)C(NC(=O)C(C)(C)N)C(=O)N1CCCC1Cc1coc2ccccc12` (centres unmarked) [Entry 5-64], the Kd was over 10000 nM.

Turning to `CNC(C)C(=O)NC(C(=O)N1CCCC1Cc1coc2ccc(Cl)cc12)C(C)C` (centres unmarked) [Entry 5-62], the equilibrium dissociation constant (Kd) is under 100 nM.

Regarding `COc1ccc2occ(CC3CCCN3C(=O)C(NC(=O)C(C)N)C(C)C)c2c1` (centres unmarked) [Entry 7-76, 2-Amino-N-{1-[2-(5-methoxy-benzofuran-3-ylmethyl)-pyrrolidine-1-carbonyl]-2-methyl-propyl}-propionamide], the Kd was 1000 to 10000 nM.

As for `CC(NC=O)C(=O)NC(C(=O)N1CCCC1Cc1coc2ccccc12)C(C)C` (centres unmarked) [Entry 5-67], the dissociation constant (Kd) was over 10000 nM.

As to `CCNC(C)C(=O)NC(C(=O)N1CCCC1Cc1coc2ccccc12)C(C)C` (centres unmarked) [Entry 5-68], the Kd was 1000 to 10000 nM.

As for `C[C@H](N)C(=O)N[C@H](C(=O)N1C[C@@H](Oc2ccccc2)C[C@H]1Cc1coc2ccccc12)C(C)(C)C` [Entry 5-40], the equilibrium dissociation constant (Kd) was under 100 nM.

As to `CC[C@H](N)C(=O)N[C@H](C(=O)N1C[C@@H](Oc2ccccc2)C[C@H]1Cc1coc2ccccc12)C1CCCCC1` [Entry 5-56], the dissociation constant Kd is 100 to 1000 nM.

For `CC[C@H](N)C(=O)N[C@H](C(=O)N1C[C@@H](Oc2ccccc2)C[C@H]1Cc1coc2ccccc12)C(C)C` [Entry 5-44], the Kd was under 100 nM.

As to `CC(C)[C@H](NC(=O)[C@H](C)N)C(=O)N1CCC[C@H]1CCCOc1ccccc1-c1ccccc1` [Entry 4-32], the Kd was 100 to 1000 nM.

Turning to `C[C@H](N)C(=O)N[C@H]1CCCNC(=O)CCc2oc3ccccc3c2C[C@@H]2CCCN2C1=O` [Entry 11-91, Ornithine-derived Lactam], the dissociation constant Kd is 100 to 1000 nM.

As for `Cc1ccc(S(=O)(=O)n2cc(C[C@@H]3CCCN3C(=O)[C@@H](NC(=O)[C@H](C)N)C(C)C)c3ccccc32)cc1` [Entry 15-107, 2S-Amino-N-(2-methyl-1S-{2S-[1-(toluene-4-sulfonyl)-1H-indol-3-ylmethyl]-pyrrolidine-1-carbonyl}-propyl)-propionamide], the dissociation constant (Kd) was under 100 nM.

In the case of `CNC(C)C(=O)NC(C(=O)N1CCCC1Cc1cn(C(C)=O)c2cc(F)ccc12)C(C)(C)C` (centres unmarked) [Entry 14-96], the dissociation constant (Kd) is 100 to 1000 nM.

For `C#CCOC(C)[C@H](NC(=O)[C@H](C)N)C(=O)N1C[C@@H](Oc2ccccc2)C[C@H]1COc1ccccc1` (some centres unmarked) [Entry 2-7], the Kd is under 100 nM.

Take `CC(C)[C@H](NC(=O)[C@H](C)NC(=O)OC(C)(C)C)C(=O)N1C[C@@H](Oc2ccccc2)C[C@H]1/C=C/COc1ccc2c(c1)CCCC2` [Entry 3-16]: the Kd was over 10000 nM.

As to `COc1ccccc1OC/C=C/[C@@H]1C[C@H](Oc2ccccc2)CN1C(=O)[C@@H](NC(=O)CN)C(C)C` [Entry 3-19], the Kd was over 10000 nM.

With `CC(N)C(=O)NC(C(=O)N1CCCC1Cc1coc2ccc(OCC3CC3)cc12)C(C)C` (centres unmarked) [Entry 7-77], the Kd is over 10000 nM.

`CC(C)[C@H](NC(=O)[C@H](C)N)C(=O)N1C[C@@H](Oc2ccccc2)C[C@H]1/C=C/COc1ccccc1` [Entry 3-8]: the dissociation constant Kd is 100 to 1000 nM.

For the compound `Cc1cccc(C)c1OCCCC1CCCN1C(=O)C(NC(=O)C(C)N)C(C)C` (centres unmarked) [Entry 4-38], the dissociation constant Kd was over 10000 nM.

`CC(C)[C@H](NC(=O)[C@H](C)N)C(=O)N1C[C@@H](Oc2ccccc2)C[C@H]1Cc1coc2ccccc12` [Entry 5-39]: the Kd is under 100 nM.

With `CC(N)C(=O)NC(C(=O)N1CCCC1Cc1coc2ccc(-c3ccncc3)cc12)C(C)C` (centres unmarked) [Entry 8-78], the equilibrium dissociation constant (Kd) was 100 to 1000 nM.

For the compound `CC[C@H](NC(=O)[C@H](C)N)C(=O)N1C[C@@H](Oc2ccccc2)C[C@H]1Cc1coc2ccccc12` [Entry 5-54], the Kd is under 100 nM.

With `CC(N)C(=O)NC(C(=O)N1CCCC1Cc1c(-c2cccnc2)oc2ccccc12)C(C)C` (centres unmarked) [Entry 9-82], the dissociation constant Kd was 100 to 1000 nM.

On to `CC(N)C(=O)NC(C(=O)N1CCCC1Cc1c(-c2nccs2)oc2ccccc12)C(C)C` (centres unmarked) [Entry 9-85], for which the Kd is 100 to 1000 nM.

`CCC(N)C(=O)NC(C(=O)N1CCCC1Cc1coc2ccccc12)C(C)C` (centres unmarked) [Entry 5-58]: the Kd is 100 to 1000 nM.

Take `C[C@H](N)C(=O)N[C@H]1Cc2ccc(cc2)OCCCc2oc3ccccc3c2C[C@@H]2CCCN2C1=O` [Entry 13-93, Tyrosine-derived Cyclic Ether]: the dissociation constant (Kd) was 100 to 1000 nM.

For `C#CCn1cc(CC2CCCN2C(=O)C(NC(=O)C(C)N)C(C)C)c2ccccc21` (centres unmarked) [Entry 14-103], the dissociation constant Kd is under 100 nM.

Regarding `COc1ccccc1OC/C=C/[C@@H]1C[C@H](Oc2ccccc2)CN1C(=O)[C@@H](NC(=O)[C@H](C)N)C(C)C` [Entry 3-18], the Kd was 100 to 1000 nM.

With `CC#CCn1cc(CC2CCCN2C(=O)C(NC(=O)C(C)N)C(C)C)c2ccccc21` (centres unmarked) [Entry 14-102], the Kd was 100 to 1000 nM.

For `CCC(NC(=O)C(C)N)C(=O)N1CCCC1Cc1coc2ccccc12` (centres unmarked) [Entry 5-59], the Kd is 100 to 1000 nM.

Consider `CC(C)[C@H](NC(=O)[C@H](C)N)C(=O)N1CCC[C@H]1Cc1c[nH]c2ccccc12` [Entry 14-99, 2S-Amino-N-{1S-[2S-(1H-indol-3-ylmethyl)-pyrrolidine-1-carbonyl]-2-methyl-propyl}-propionamide], for which the equilibrium dissociation constant (Kd) was 100 to 1000 nM.

Consider `CC(C)[C@H](NC(=O)[C@H](C)N)C(=O)N1C[C@@H](Oc2ccccc2)C[C@H]1COc1ccccc1` [Entry 2-1, 2S-Amino-N-[2-methyl-1S-(4S-phenoxy-2S-phenoxymethyl-pyrrolidine-1-carbonyl)-propyl]-propionamide hydrochloride], for which the Kd is 100 to 1000 nM.

For `CC(N)C(=O)NC(C(=O)N1CCCC1COc1ccccc1)C(C)C` (centres unmarked) [Entry 2-3], the Kd is 100 to 1000 nM.

With `CC(N)C(=O)NC(C(=O)N1CCCC1COc1ccccc1-c1ccccc1)C(C)C` (centres unmarked) [Entry 2-6], the Kd is 100 to 1000 nM.

For `CC(C)[C@H](NC(=O)[C@H](C)N)C(=O)N1C[C@@H](Oc2ccccc2)C[C@H]1/C=C/COc1ccccc1Br` [Entry 3-9], the Kd is 100 to 1000 nM.

For “2-Amino-N-{2-methyl-1-[2-(5-pyridin-2-yl-benzofuran-3-ylmethyl)-pyrrolidine-1-carbonyl]-propyl}-propionamide [Entry 8-79]”, the Kd was 1000 to 10000 nM.

The record behind these values is patent US9840464B2, “IAP binding compounds” (TetraLogic Birinapant UK Ltd., priority 2004, dated 2017).
